Four compounds from patent US20230023009A1, “HETEROCYCLIC COMPOUNDS AND METHODS OF USE THEREOF” (SPARCBIO LLC, priority 2020, published 2023) can be followed below.

Assay [1] addresses KRAS G12C protein (Homo sapiens, UniProt P01116, G12C). As to the kind of experiment: Nucleotide exchange assay (Method III, KRAS G12C/Raf-RBD TR-FRET). In kind it is biochemical. The settings on record: SOS1-mediated exchange of GDP for GTP, 18 hr compound incubation. Here is the method:
Method III. Inhibition of SOS1-mediated exchange of GDP for GTP on the KRAS G12C protein was measured in a biochemical assay that monitors association of KRAS G12C protein with the Ras-binding domain of Raf (Raf-RBD), where the association is coupled to exchange of GDP to GTP on the KRAS G12C protein. The assay was performed at WuXi AppTec (Shanghai, China). Compounds were serially diluted in 3-fold dilutions to 11 concentrations and spotted into the wells of an assay plate in a total volume of 150 nL DMSO per well. A 2× enzyme mix was prepared by diluting GDP-bound, His-tagged KRAS G12C to 25 nM in assay buffer. 10 μL/well of 2× enzyme mix was added to all wells, and the plate was sealed and incubated overnight (18 hr) at 23° C. 4×SOS1/GDP and 4×SOS1/GTP were prepared in assay buffer. 5 μL/well of 4×SOS1/GDP mix was added to negative control wells, 5 μL/well of 4×SOS1/GTP mix was added to the remaining wells, and the plate was further incubated at 23° C. for 1 hr. Finally, FLAG-tagged Raf-RBD is added to the reaction mixture along with a pair of FRET donor- and acceptor-conjugated antibodies specific for the FLAG-tagged Raf-RBD and His-tagged KRAS G12C proteins. A 4×Raf-RBD/Tb-anti-FLAG/D2-anti-His mix was prepared in assay buffer, and 5 μL/well of the mix was added to all wells, followed by incubation at room temperature for 2 hr. The TR-FRET signals, which increase with association of KRAS G12C and Raf-RBD, were measured on a Perkin Elmer Envision 2104 plate reader, and data were analyzed by non-linear regression to obtain IC50 values for inhibition by compounds. Table 2 includes results of the assay of Method III. ‘+++’ indicates IC50 values≤300 nM, ‘++’ indicates IC50 values between 300 nM-3 μM, and ‘+’ indicates IC50 values≥3 μM.

In assay [2] the test system is NCI-H358 subcutaneous xenograft tumors. As to the kind of experiment: NCI-H358 mouse xenograft model.
Experimental: NCI-H358 cells were injected subcutaneously (5×10^6 cells in 0.1 mL of PBS) into the right flanks of 6-8-week-old female BALB/c nude mice and allowed to grow until the average tumor size reached 150-200 mm^3. The mice were then stratified into treatment groups of 4-8 animals and treatment initiated on Day 0. Test compound or vehicle (1% Tween 80, 2% HPMC, and 97% water) was administered orally, once daily, for 21 days. Tumor size was measured twice weekly in two dimensions using a caliper, and the volume was expressed in mm^3 using the formula: V=(a×b^2/2) where a and b are the long and short diameters of the tumor, respectively. Tumor Growth Inhibition (TGI) was calculated for each group using the formula: TGI %=(1−Ti/Vi)×100, where Ti is the mean tumor volume of the treatment group on the measurement day, and Vi is the mean tumor volume of the control group on the measurement day. Animal body weight was monitored regularly as an indicator of toxicity. […] Data points represent the group mean, and error bars represent the standard error of the mean (SEM).
Assay [3] deals with NCI-H358 cells. As to the kind of experiment: 3D cell proliferation assay (Cell Titer-Glo 3D, 7 days). In kind it is cell-based. The settings on record: Homo sapiens, NCI-H358, 168 h, NCI-H358 3D, ultra-low attachment plate. As for the experimental part: NCI-H358 cells (ATCC® CRL-5807™) were plated in a 384-well Black/Clear Round Bottom Ultra-Low Attachment Microplate (Corning) in medium (RPMI-1640+10% FBS) at a density of 1000 cells in 50 μL per well, then incubated overnight at 37° C. and 5% CO2. Cells were treated with test compounds at 9 concentrations within a specified concentration range (e.g., 0.5 nM-10 μM) for generation of dose response curves. Test compounds were prepared by 1:3 serial dilution in DMSO from a specified starting concentration (e.g., 20 μM, 2 μM or 0.2 μM) and then added to wells of the assay plate in a total volume of 150 nL DMSO. The cells were further incubated at 37° C. and 5% CO2 for 7 days. Cell viability was assessed by adding 40 μL of Cell Titer-Glo® 3D reagent (Cat. No.: G9683, Promega) to each well and reading luminescence after mixing and incubation of the samples. The IC50 value of each test compound was calculated with XLFit curve fitting software.
(In general: ATP-based viability assays read luminescence as a measure of living cells.)

Assay [4] concerns Phosphorylation of ERK in NCI-H358 cells. As to the kind of experiment: pERK assay (Method II, homogeneous TR-FRET). In kind it is cell-based. The settings on record: Homo sapiens, 4 hrs compound treatment. As for the experimental part: Method II. Phosphorylation of ERK was assessed by a homogeneous TR-FRET assay (Advanced phospho-ERK (Thr202/Tyr204) cellular kit; Cat. #64AERPEH, Cisbio). In brief, NCI-H358 cells were seeded in a 384-well culture plate at a density of 6000 cells in 40 μL medium/well and grown overnight at 37° C. and 5% CO2. Each test compound was dosed in duplicate in a 10-dose 3-fold titration starting at 10 μM or 2 μM. The culture plate was then incubated for 4 hrs in the incubator. At the end of the compound treatment, the medium was removed, 35 μL of lysis buffer was added to each well, and the plate was agitated on a plate shaker for 40 mins at 4° C. An antibody cocktail of phospho-ERK1/2 Eu Cryptate antibody and Phospho-ERK1/2 d2 antibody was prepared by separately diluting the antibodies 20-fold with detection buffer and then mixing them together. 3.4 μL of antibody cocktail was dispensed to each well of an empty 384-well white ProxiPlus assay plate (Perkin Elmer), and the plate briefly centrifuged. 13.6 μL of cell lysate was then added to the antibody-containing wells, and the plate was briefly centrifuged and then incubated 2 hrs at room temperature. The plate was read on a fluorescence plate reader (Envision2104, Perkin Elmer), with an excitation wavelength of 337 nm and emission wavelengths of 615 nm and 665 nm. The IC50 value of each test compound was calculated with XLFit curve fitting software. Results are shown in Table 6. ‘+++’ indicates IC50 values≤300 nM, ‘++’ indicates IC50 values between 300 nM-3 μM, and ‘+’ indicates IC50 values≥3 μM.
For orientation: In TR-FRET formats the signal depends on donor and acceptor labels being close together.

Assay [5] relates to MIA PaCa-2. As to the kind of experiment: Cell proliferation assay panel (Cell Titer-Glo, 72 hr). Format: cell-based. The settings on record: Homo sapiens, MIA PaCa-2, 72 h. As for the experimental part:
Potency of compounds was determined in cell proliferation assays in a panel of cancer cell lines. Cells were seeded in 384-well plates (Corning, Cat. #3765) at specified densities in 40 μL of culture medium and incubated overnight at 37° C. in a 5% CO2 incubator (culture conditions). With a robotic dispenser, serially diluted test compounds were added in a volume of 20 nL DMSO to wells in the culture plate to achieve the final desired concentrations of test compounds, and the cells were further incubated in culture conditions for 72 hr. The assay was terminated by addition of 25 μL of Cell Titer-Glo reagent (Promega, Madison, Wis.) to each well. Contents were mixed, the plate was incubated for 10 min at room temperature and luminescence was measured. The IC50 value of each test compound was calculated with XLFit curve fitting software. Results are shown in Table 4. ‘+++’ indicates IC50 values≤300 nM, ‘++’ indicates IC50 values between 300 nM-3 μM, and ‘+’ indicates IC50 values≥3 μM.

Some results are limits rather than exact numbers.

Chain of KRAS G12C protein (P01116 1-188 isoform P01116-2 G12C): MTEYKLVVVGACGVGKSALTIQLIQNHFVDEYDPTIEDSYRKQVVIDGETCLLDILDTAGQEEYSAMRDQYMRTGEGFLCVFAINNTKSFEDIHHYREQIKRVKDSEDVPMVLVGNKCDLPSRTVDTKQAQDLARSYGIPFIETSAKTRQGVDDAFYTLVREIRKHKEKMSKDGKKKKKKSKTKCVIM

Usually IC50 stands for the midpoint of a concentration-inhibition curve. One may read the TGI as the reduction of tumour growth relative to the control group. For the compound `C=CC(=O)N1CCN(c2nc(OC[C@@H]3CCCN3C)nc3c2COC(c2cccc4cccc(Cl)c24)C3)C[C@@H]1CC#N` (single isomer, unassigned) [38 (Isomer B)], the IC50 was at most 300 nM in assay [1] and at most 100 nM in assay [3]. The TGI in assay [2] (10 mg/kg orally once daily, Day 20 after treatment start) is on record as 22.4%; in assay [2] (30 mg/kg orally once daily, Day 20 after treatment start (day not restated for comparators)) it was 26.7%; in assay [2] (100 mg/kg orally once daily, Day 20 after treatment start), 50.4%.
As for `C=C(F)C(=O)N1CCN(c2nc(OC[C@@H]3CCCN3C)nc3c2COC(c2c(C)ccc4[nH]ncc24)C3)C[C@@H]1CC#N` (single isomer, unassigned) [52 (Isomer B)], the IC50 in assay [4] is 300 to 3000 nM; in assay [1], at most 300 nM; in assay [5], 300 to 3000 nM; in assay [3], 100 to 2000 nM.
Regarding `C/C=C/C(=O)N1CCN(c2nc(OC[C@@H]3CCCN3C)nc3c2COC(c2cccc4cccc(Cl)c24)C3)C[C@@H]1CC#N` (single isomer, unassigned) [241 (Isomer A)], the IC50 was at most 300 nM in assay [4], at most 300 nM in assay [1], 300 to 3000 nM in assay [5] and at most 100 nM in assay [3].
For `CC#CC(=O)N1CCN(c2nc(OC[C@@H]3CCCN3C)nc3c2COC(c2cccc4cccc(Cl)c24)C3)C[C@@H]1CC#N` (single isomer, unassigned) [243 (Isomer B)], the IC50 is at most 300 nM in assay [4], at most 300 nM in assay [1], at most 300 nM in assay [5] and at most 100 nM in assay [3].
